{"source": "patent US20090076050A1", "about": "“SYNERGISTIC TUMOR-KILLING EFFECT OF RADIATION AND BERBERINE COMBINED TREATMENT IN LUNG CANCER” (CHUNG SHAN MEDICAL U., priority 2007, published 2009)", "type_in_all_cases": "cell-based, human", "key": {"A549 cells [1]": {"system": "A549 cells", "experiment": "cell cycle distribution by propidium iodide flow cytometry", "conditions": "24 h", "description": "Flow cytometry was performed by propidium iodide staining (Roche Molecular Biochemical, Indianapolis, USA) according to the manufacturer's instructions. Untreated and treated cells were washed in PBS and fixed in ice-cold ethanol. Fixed cells were pelleted and resuspended in 500 μl of PBS. Then, the cells were stained with propidium iodide and analyzed for cell cycle distribution by flow cytometry with a FACStar caliber (Becton Dickinson) cell sorter. The percentage of each phase was evaluated by Cell-Quest software of the histograms."}, "A549 cells [2]": {"system": "A549 cells", "experiment": "mitochondrial membrane potential by JC-1 flow cytometry", "conditions": "1.0, 2.5, 5.0 and 10 μM berberine combined with irradiation (6 Gy), 24 h", "description": "Berberine has been reported to induce cell death in several cancer cells via mitochondrial disruption (Lin J P, et al. World J Gastroenterol 2006; 12:21-28.). Therefore, mitochondrial membrane potential was next measured with JC-1. Mitochondria membrane potential (Δ Ψm), the lipophilic cationic probe fluorochrome JC-1 (Invitrogen) was used. […] After a treatment of radiation (6 Gy) for 24 h in the absence or presence of 1.0-10 μM berberine, cells were rinsed with DMEM, and JC-1 (5 μmol/L) was loaded. Determination of Δ Ψm was also carried out with a FACScan Flow Cytometer. […] It has been reported that depolarized mitochondria would move into autophagic vacuoles in response to appropriate stimulation; thus, mitochondria dysfunction may be a point of overlap between apoptotic and autophagocytic processes (Bras M, et al. Biochemistry (Mosc) 2005; 70:231-39). […] On the other hand, beclin-1 siRNA and 3-MA (autophagy inhibitor) blocked the cell death induced by 5.0 μM berberine combined with 6 Gy IR (p<0.001). As a consequence, berberine sensitized A549 cells to IR damage via inducing autophagic cell death."}, "LC3-II in A549 cells": {"system": "LC3-II in A549 cells", "experiment": "immunoblotting for LC3-I, LC3-II", "conditions": "24 h after IR combined with increasing concentrations of berberine", "description": "The role of apoptosis in the sensitivity of A549 cells to IR induced by berberine was further clarified by DAPI stain. DNA extraction and electrophoresis on agarose gel were carried out as described previously (Solary E, et al. Therapie 2001; 56:511-18). After the indicated treatments, cells were fixed with 3 mL of 4% paraformaldehyde. To stain the cells, 500 μL of a 0.5 μg/mL chilled solution of DAPI (Invitrogen) stain was added and allowed to sit for 5 min. The cells were then rinsed with PBS solution and counted under a fluorescent microscope. For positive control of DNA fragmentation and DAPI stain, A549 cells were treated with 30 μM etoposide for 24 h. […] This contention was further confirmed by the lack of apoptotic DNA fragmentation and activation of caspase-3 and poly-(ADP-ribose) polymerases (PARP) as analyzed by DNA electrophoresis and immunoblotting (FIG. 3B, 3C). After the indicated treatment, the resultant supernatants were separated in 12%˜18% polyacrylamide gels. The blot was incubated with a polyclonal antibody against LC3 (gift from T. Yoshimori), PARP, caspase-3, bcl-2, beclin-1 and β-actin (Santa Cruz biotechnology, USA) for 2 h, and then with an appropriate peroxidase-conjugated secondary antibody (Sigma) for 1 h at 37° C. […] LC3 is localized in autophagosome membranes during amino acid starvation-induced autophagy (Mizushima N, et al. J Cell Biol 2001; 152:657-68.). […]"}, "[3]": {"conditions": "IR (6 Gy) + 5.0 μM berberine, listed as Ber"}}}
{"molecule": "COc1ccc2cc3[n+](cc2c1OC)CCc1cc2c(cc1-3)OCO2", "note": "[berberine, Berberine]", "values": [{"measurement": "G0/G1", "setting": "A549 cells [1]; IR (6 Gy) + 2.5 μM berberine", "value": "45.5 ± 4.96", "unit": "%"}, {"measurement": "G2/M", "setting": "A549 cells [1]; IR (6 Gy) + 2.5 μM berberine", "value": 28.8, "unit": "%"}, {"measurement": "S", "setting": "A549 cells [1]; IR (6 Gy) + 2.5 μM berberine", "value": "20.1 ± 2.26", "unit": "%"}, {"measurement": "sub G1", "setting": "A549 cells [1]; IR (6 Gy) + 2.5 μM berberine", "value": "5.6 ± 0.18", "unit": "%"}, {"measurement": "G2/M", "setting": "A549 cells [1]; IR (6 Gy) + 2.5 μM berberine, listed as Ber", "value": "28.8 ± 2.91", "unit": "%"}, {"measurement": "G0/G1", "setting": "A549 cells [1]; IR (6 Gy) + 5.0 μM berberine", "value": "36.2 ± 4.15", "unit": "%"}, {"measurement": "G2/M", "setting": "A549 cells [1]; IR (6 Gy) + 5.0 μM berberine", "value": 40.5, "unit": "%"}, {"measurement": "S", "setting": "A549 cells [1]; IR (6 Gy) + 5.0 μM berberine", "value": "14.8 ± 2.05", "unit": "%"}, {"measurement": "sub G1", "setting": "A549 cells [1]; IR (6 Gy) + 5.0 μM berberine", "value": 8.5, "unit": "%"}, {"measurement": "G2/M", "setting": "A549 cells [1]; [3]", "value": "40.5 ± 4.55", "unit": "%"}, {"measurement": "sub G1", "setting": "A549 cells [1]; [3]", "value": "8.5 ± 0.22", "unit": "%"}, {"measurement": "G0/G1", "setting": "A549 cells [1]; IR (6 Gy) + 10 μM berberine", "value": "33.9 ± 4.01", "unit": "%"}, {"measurement": "G2/M", "setting": "A549 cells [1]; IR (6 Gy) + 10 μM berberine", "value": 41.7, "unit": "%"}, {"measurement": "S", "setting": "A549 cells [1]; IR (6 Gy) + 10 μM berberine", "value": "15.5 ± 1.81", "unit": "%"}, {"measurement": "sub G1", "setting": "A549 cells [1]; IR (6 Gy) + 10 μM berberine", "value": "8.9 ± 0.25", "unit": "%"}, {"measurement": "G2/M", "setting": "A549 cells [1]; IR (6 Gy) + 10 μM berberine, listed as Ber", "value": "41.7 ± 3.91", "unit": "%"}, {"measurement": "G0/G1", "setting": "A549 cells [1]; IR (6 Gy) + 20 μM berberine", "value": "37.2 ± 4.27", "unit": "%"}, {"measurement": "G2/M", "setting": "A549 cells [1]; IR (6 Gy) + 20 μM berberine", "value": "30.5 ± 3.18", "unit": "%"}, {"measurement": "S", "setting": "A549 cells [1]; IR (6 Gy) + 20 μM berberine", "value": "16.7 ± 2.33", "unit": "%"}, {"measurement": "sub G1", "setting": "A549 cells [1]; IR (6 Gy) + 20 μM berberine", "value": "15.6 ± 1.26", "unit": "%"}, {"measurement": "mitochondrial membrane potential (JC-1)", "setting": "A549 cells [2]", "value": "great loss of membrane potential"}, {"measurement": "expression of LC3-II", "setting": "LC3-II in A549 cells", "value": "increased dose-dependently"}]}
